Activity calls are given as the source filed them. The rule behind the calls is not given here.
Tests used:
Homo sapiens [1] = species: Homo sapiens; test: Preservation of mitochondrial membrane potential in diethyl maleate-treated human Friedreich's ataxia lymphocytes at 0.5 uM pre-incubated for 16 hrs before diethyl maleate challenge by FACS method (reference value: 25%); type: functional
Bos taurus [2] = species: Bos taurus; test: Inhibition of NADH oxidase activity in bovine heart sub-mitochondrial particles assessed as remaining enzyme activity at 10 uM by spectrophotometry relative to untreated control
Bos taurus [3] = species: Bos taurus; test: Inhibition of NADH oxidase activity in bovine heart sub-mitochondrial particles assessed as remaining enzyme activity at 1 uM by spectrophotometry relative to untreated control
Homo sapiens [4] = species: Homo sapiens; test: Preservation of mitochondrial membrane potential in diethyl maleate-treated human Friedreich's ataxia lymphocytes at 2.5 uM pre-incubated for 16 hrs before diethyl maleate challenge by FACS method (reference value: 25%); type: functional
Bos taurus [5] = species: Bos taurus; test: Inhibition of NADH oxidase activity in bovine heart sub-mitochondrial particles assessed as remaining enzyme activity at 5 uM by spectrophotometry relative to untreated control
Homo sapiens [6] = species: Homo sapiens; test: Preservation of mitochondrial membrane potential in diethyl maleate-treated human Friedreich's ataxia lymphocytes at 1 uM pre-incubated for 16 hrs before diethyl maleate challenge by FACS method (reference value: 25%); type: functional
Homo sapiens [7] = species: Homo sapiens; test: Inhibition of lipid peroxidation in diethyl maleate-treated human Friedreich's ataxia lymphocytes at 2.5 uM pre-incubated for 16 hrs before diethyl maleate challenge by FACS method relative to untreated control; type: functional
CCRF-CEM [8] = test: Cytoprotection in diethyl maleate-treated human CCRF-CEM cells 2.5 uM incubated for 17 hrs before diethyl maleate challenge by trypan blue dye exclusion method (reference value: 18 +/- 10%); type: functional
CCRF-CEM [9] = test: Cytoprotection in diethyl maleate-treated human CCRF-CEM cells 0.5 uM incubated for 17 hrs before diethyl maleate challenge by trypan blue dye exclusion method (reference value: 18 +/- 10%); type: functional
CCRF-CEM [10] = test: Cytoprotection in diethyl maleate-treated human CCRF-CEM cells 0.1 uM incubated for 17 hrs before diethyl maleate challenge by trypan blue dye exclusion method (reference value: 18 +/- 10%); type: functional
Homo sapiens [11] = species: Homo sapiens; test: Inhibition of lipid peroxidation in diethyl maleate-treated human Friedreich's ataxia lymphocytes at 5 uM pre-incubated for 16 hrs before diethyl maleate challenge by FACS method relative to untreated control; type: functional
CCRF-CEM [12] = test: Inhibition of diethyl maleate-induced ROS production in human CCRF-CEM cells at 0.25 to 2.5 uM incubated for 16 hrs by DCFH-DA dye staining based FACS method; type: functional, cell-based
[13] = Cytoprotection in diethyl maleate-treated human Friedreich's ataxia lymphocytes incubated for 17 hrs before diethyl maleate challenge by trypan blue dye exclusion method; type: functional

Structure (SMILES) | Activity (Bos taurus [2]) | Activity (Bos taurus [3]) | Activity (Bos taurus [5]) | Activity (Homo sapiens [1]) | Activity (Homo sapiens [4]) | Activity (Homo sapiens [6]) | inhibition (Homo sapiens [7]) | Activity (CCRF-CEM [8]) | Activity (CCRF-CEM [9]) | Activity (CCRF-CEM [10]) | inhibition (Homo sapiens [11]) | inhibition (CCRF-CEM [12]) | EC50 [13]
COC1=C(OC)C(=O)C(CCCCCCCCCCO)=C(C)C1=O [IDEBENONE] | 15% | 65% | 53% | 47% | 75% | 57% | 68% | 88% | 49% | 34% | 77% | Active | 730 nM
Cc1cc(N(C)C)nc(C)c1O |  |  |  | 29% |  |  | 3.5% |  |  |  | 3.9% |  | 
Cc1c(N(C)C)nc(CCCCCCCCCCO)c(O)c1C | 6% | 27% | 9% | 60% | 70% | 75% | 87% | 92% | 47% | 42% | 97% | Active | 560 nM

Second part, led by results:

Activity (Bos taurus [2]) | Activity (Bos taurus [3]) | Activity (Bos taurus [5]) | Structure (SMILES) | Activity (Homo sapiens [1]) | Activity (Homo sapiens [4]) | Activity (Homo sapiens [6]) | inhibition (Homo sapiens [7]) | Activity (CCRF-CEM [8]) | Activity (CCRF-CEM [9]) | Activity (CCRF-CEM [10]) | inhibition (Homo sapiens [11]) | inhibition (CCRF-CEM [12]) | EC50 [13]
43% | 71% | 49% | Cc1cc(-n2c(C)ccc2C)nc(CCCCCCCCCCO)c1O | 35% | 52% | 44% | 20% | 26% | 23% | 18% | 39% |  | 
48% | 74% | 52% | Cc1cc(N)nc(CCCCCCCCCCO)c1O | 42% | 65% | 50% | 62% | 78% | 38% | 28% | 74% | Active | 
25% | 85% | 42% | Cc1cc(N(C)C)nc(CCCCCCCCCCO)c1O | 45% | 73% | 54% | 71% | 94% | 59% | 41% | 82% | Active | 840 nM
27% | 78% | 59% | Cc1cc(N2C(C)CCC2C)nc(CCCCCCCCCCO)c1O (stereo unspecified) | 66% | 83% | 72% | 90% | 93% | 90% | 88% | 97% | Dose-dependent effect | 150 nM
22% | 49% | 26% | Cc1nc(N(C)C)nc(CCCCCCCCCCO)c1O | 68% | 86% | 75% | 83% | 94% | 93% | 76% | 91% | Active | 380 nM

From ChEMBL document CHEMBL2169807, “Analysis of the structural and mechanistic factors in antioxidants that preserve mitochondrial function and confer cytoprotection” (Bioorg Med Chem, 2012)
